From patent publication US7915293B2, “Ubiquitin ligase inhibitors” (Rigel Pharmaceuticals, Inc., priority 2003, dated 2011)

Columns and labels:
Set-up in all cases: key: “+” indicates that the compound exibits inhibitory activity; “−” indicates that low or no inhibitory activity was observed
[1] = target: E3 (His-APC11/APC2-"APC") (Homo sapiens, UniProt Q9NYG5+Q9UJX6); assay: Plate-based E3 ligase assay (APC FLAG), auto-ubiquitination; type: biochemical; conditions: for APC Flag 8 pt: 8 concentrations tested
Sequence of E3 (His-APC11/APC2-"APC") (Q9NYG5 whole entry): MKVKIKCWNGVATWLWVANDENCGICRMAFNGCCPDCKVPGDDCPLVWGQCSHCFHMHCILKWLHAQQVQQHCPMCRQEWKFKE
Sequence of E3 (His-APC11/APC2-"APC") (Q9UJX6 whole entry): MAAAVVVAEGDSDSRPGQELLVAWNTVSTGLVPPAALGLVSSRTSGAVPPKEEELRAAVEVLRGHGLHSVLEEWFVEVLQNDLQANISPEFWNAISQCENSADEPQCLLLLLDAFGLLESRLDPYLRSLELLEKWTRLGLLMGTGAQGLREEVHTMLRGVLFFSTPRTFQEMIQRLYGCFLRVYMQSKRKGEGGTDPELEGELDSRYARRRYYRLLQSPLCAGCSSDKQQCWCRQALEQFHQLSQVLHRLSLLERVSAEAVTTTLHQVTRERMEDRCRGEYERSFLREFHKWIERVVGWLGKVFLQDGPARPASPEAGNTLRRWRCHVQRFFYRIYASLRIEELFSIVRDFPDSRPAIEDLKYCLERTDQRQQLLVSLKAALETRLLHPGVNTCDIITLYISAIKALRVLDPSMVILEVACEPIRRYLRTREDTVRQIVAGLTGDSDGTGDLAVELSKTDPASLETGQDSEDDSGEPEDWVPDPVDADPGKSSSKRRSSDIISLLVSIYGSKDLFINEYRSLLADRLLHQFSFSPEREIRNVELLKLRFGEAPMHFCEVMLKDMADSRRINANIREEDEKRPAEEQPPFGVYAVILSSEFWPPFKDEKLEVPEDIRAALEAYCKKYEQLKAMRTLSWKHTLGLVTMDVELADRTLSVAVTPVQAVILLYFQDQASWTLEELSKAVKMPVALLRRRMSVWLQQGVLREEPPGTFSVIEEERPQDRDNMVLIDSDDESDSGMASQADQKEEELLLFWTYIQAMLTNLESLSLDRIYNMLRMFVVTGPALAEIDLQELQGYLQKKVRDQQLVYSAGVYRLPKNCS
Outline: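 His-APC11/APC2 auto-ubiquitination was run in casein-blocked nickel plates for 1 h at room temperature, with E1 at 5 ng/well, UbcH5c at 20 ng/well and APC at 100 ng/well. Buffer was 62.5 mM Tris pH 7.6, 3 mM MgCl2, 1 mM DTT, 2.5 mM ATP and Flag-ubiquitin at 100 ng/well. Detection used anti-Flag/HRP chemiluminescence, and IC50 was typically from 6 or 8 concentrations versus a DMSO control.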

[2] = test system: A549 cells; assay: Cell proliferation assay, photographic image analysis of proliferation, apoptosis and death (PAD assay), A549; type: cell-based; conditions: 6 concentrations tested
Outline: (§1)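 Cells grown in RPMI with 5% FBS (2,000/well) and dosed 24 h after plating with 6.3-fold dilutions in duplicate (master plate 500× final, top 10 mM stock). After 48 h at 37 °C, cells formamide-fixed and DAPI-stained. Image analysis counted live, apoptotic and dead cells.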

[3] = test system: HeLa cells; assay: Cell proliferation assay, photographic image analysis of proliferation, apoptosis and death (PAD assay), HeLa; type: cell-based; conditions: 6 concentrations tested
Outline: as §1

[4] = test system: A549 cells; assay: Non-photographic proliferation analysis (Promega Cell titer Aqueous), A549; type: cell-based; conditions: 6 concentrations tested
Procedure: (§2) A549 (ATCC# CCL-185), HeLa (ATCC# CCL-2), HCT116 (ATCC# CCL-247), and H1299 (ATCC# CRL-5803) cells were maintained in T175 flasks following the ATCC recommended media and handling procedures. Flasks reaching approximately 70% confluency were trypsinized and resuspended in RPMI media (Cell-Gro catalog number 10-040-CM) modified to contain 5% FBS, 100 ug/mlPen/Strep (Cell-Gro catalog number 30-002-CL), and 0.3 mg/ml L-Glutamine (Cell-Gro catalog number 25-003-CL). A 20,000 cells/ml solution was made for plating. Cells were plated in black Packard 96 well plates by placing 100 μl per well (2,000 cells per well).
(§3) Compounds and additional media were added 24 hours after cell plating. A compound master plate was created with concentrations 500 times greater than the final concentration added to the cells. All compound testing was done in duplicate using 6.3 fold dilutions starting with 10 mM. All outside wells (and 4 internal wells) were DMSO controls. Taxol and at least one additional control were run on all plates. Three microliters of the compound master plate were added to deep well blocks containing 750 μl of RPMI media. One hundred microliters were transferred from the compound/media deep well blocks to the plated cells resulting in a 500 fold dilution of the compounds. Cells were grown at 37° C., 5% CO2 for 48 hours.
(§4) Some cell plates were treated with Promega Cell titer Aqueous 1 kit (promega—VWR catalog number G3580). In this case, 48 hours after the test compound were added, 100 μl of media were removed and 20 μl of cell titer reagent were added to all wells. Plates were incubated at 37° C. for 45 minutes prior to absorbance reads on the Wallac plate reader at 490 nm for 0.1 sec/well.

[5] = test system: HeLa cells; assay: Non-photographic proliferation analysis (Promega Cell titer Aqueous), HeLa; type: cell-based; conditions: 6 concentrations tested
Procedure: as §2, §3, §4

[6] = test system: HCT116 cells; assay: Non-photographic proliferation analysis (Promega Cell titer Aqueous), HCT116; type: cell-based; conditions: 6 concentrations tested
Procedure: as §2, §3, §4

[7] = test system: HCT116 cells; assay: Cell proliferation assay, photographic image analysis of proliferation, apoptosis and death (PAD assay), HCT116; type: cell-based; conditions: 6 concentrations tested
Procedure: as §2, §3
Cells to be analyzed by photography were fixed and stained. One hundred microliters of media were removed and 100 μl of 9.3% […] was added to each well. Plates were left on the benchtop for 45 minutes. A staining solution containing 1.55 μl of 1 mg/ml DAPI added to 18.75 ml PBS was warmed for 15 minutes at 37° C. The cells were aspirated prior to washing with 100 μl of PBS. Seventy microliters of PBS were aspirated and 170 μl of the DAPI solution were added to each well of fixed cells. Plates were left at room temperature for one hour then aspirated and washed twice with 100 μl of PBS. The stained cells were left at 4° C. for a minimum of 16 hours before photographic analysis with Array Scan II (Cellomics). Analysis of the photographic images to determine numbers of live cells (proliferation), apoptotic cells and dead cells, were according to the methods described in U.S. Provisional Patent Application Ser. No. 60/406,714, which incorporated herein in its entirety.

Row | Compound | APC Flag 8 pt [1] | APC Flag (2 pt) ([1]; 2 concentrations tested) | PAD Assay, A549 6 pt [2] | PAD Assay, HELA 6 pt [3] | Cell Titer-Aqueous, A549 6 pt [4] | Cell Titer-Aqueous, HELA 6 pt [5] | Cell Titer-Aqueous, HCT116 6 pt [6] | PAD Assay, HCT116 6 pt [7]
1 | N=C(NS(=O)(=O)c1cc(Cl)c(Oc2ccc([N+](=O)[O-])cc2)c(Cl)c1)c1ccncc1 [Example 62, N-{[3,5-dichloro-4-(4-nitrophenoxy)phenyl]sulfonyl}pyridine-4-carboximidamide] | − |  | + | + | + | + | + | 
2 | O=[N+]([O-])c1ccc(Oc2c(Cl)cc(S(=O)(=O)Nc3ccccc3I)cc2Cl)c(Cl)c1 [Compound 209] | + |  | + | + | + | + |  | 
3 | N=C(NS(=O)(=O)c1cc(Cl)c(Oc2ccc([N+](=O)[O-])cc2Cl)c(Cl)c1)c1cccc([N+](=O)[O-])c1 [Example 210, N-{[3,5-dichloro-4-(2-chloro-4-nitro-phenoxy)phenyl]sulfonyl}-3-nitrobenzene-carboximidamide] | + |  | + | + | + | + |  | 
4 | O=[N+]([O-])c1ccc(Oc2c(Cl)cc(S(=O)(=O)Nc3ccc(F)c(Cl)c3)cc2Cl)c(Cl)c1 [Example 16, 3,5-dichloro-N-(3-chloro-4-fluorophenyl)-4-(2-chloro-4-nitrophenoxy)benzene-sulfonamide] | + |  | − |  | + | + | + | 
5 | Cc1cccc(C)c1N(S(=O)(=O)c1cc(Cl)c(Oc2ccc([N+](=O)[O-])cc2Cl)c(Cl)c1)S(=O)(=O)c1cc(Cl)c(Oc2ccc([N+](=O)[O-])cc2Cl)c(Cl)c1 [Example 145, 3,5-dichloro-4-(2-chloro-4-nitrophenoxy)-N-(2,6-dimethylphenyl)-N-(1,3-dichloro-2-(2-chloro-4-nitrophenoxy)5-sulfonylbenzene)benzenesulfonamide] | + |  |  |  | − | − | − | 
6 | CS(=O)(=O)c1cccc(NS(=O)(=O)c2cc(Cl)c(Oc3ccc([N+](=O)[O-])cc3Cl)c(Cl)c2)c1 [Compound 173, 3,5-dichloro-4-(2-chloro-4-nitrophenoxy)-N-[3-(methylsulfonyl)phenyl]benzenesulfonamide] |  | − (2 pt) | − | − | − | − |  | 
7 | CC1CCCC(C)N1S(=O)(=O)c1cc(Cl)c(Oc2ccc([N+](=O)[O-])cc2Cl)c(Cl)c1 (stereo not drawn) [Example 140, 1-{[3,5-dichloro-4-(2-chloro-4-nitrophenoxy)phenyl]sulfonyl}-2,6-dimethylpiperidine] | + |  |  |  | − | − | − | 

More lines, main results first:

Row | APC Flag 8 pt [1] | APC Flag (2 pt) ([1]; 2 concentrations tested) | Compound | PAD Assay, A549 6 pt [2] | PAD Assay, HELA 6 pt [3] | Cell Titer-Aqueous, A549 6 pt [4] | Cell Titer-Aqueous, HELA 6 pt [5] | Cell Titer-Aqueous, HCT116 6 pt [6] | PAD Assay, HCT116 6 pt [7]
8 | + |  | Cc1cccc(C)c1NS(=O)(=O)c1cc(Cl)c(Oc2ccc([N+](=O)[O-])cc2Cl)c(Cl)c1 [Example 146, 3,5-dichloro-4-(2-chloro-4-nitrophenoxy)-N-(2,6-dimethylphenyl)benzenesulfonamide] | + | + | + | + | + | 
9 | + |  | Cc1ccc(NS(=O)(=O)c2cc(Cl)c(Oc3ccc([N+](=O)[O-])cc3Cl)c(Cl)c2)c(Cl)c1 [Example 251, 3,5-dichloro-N-(2-chloro-4-methylphenyl)-4-(2-chloro-4-nitrophenoxy)benzene-sulfonamide] | + | + |  |  |  | +
10 | + |  | O=S(=O)(Nc1ccc(C(F)(F)F)cc1Cl)c1ccc(Oc2ncc(C(F)(F)F)cc2Cl)cc1 [Example 255, N-[2-chloro-4-(trifluoromethyl)phenyl]-4-{[3-chloro-5-(trifluoromethyl)pyridin-2-yl]oxy}benzenesulfonamide] | + | + |  |  |  | +
11 | + |  | O=[N+]([O-])c1ccc(Oc2c(Cl)cc(S(=O)(=O)Nc3ccccc3C(F)(F)F)cc2Cl)c(Cl)c1 [Example 230, 3,5-dichloro-4-(2-chloro-4-nitrophenoxy)-N-[2-(trifluoromethyl)phenyl]benzene-sulfonamide] | + | + |  |  |  | +
12 | − |  | COc1cc(NS(=O)(=O)c2cc(Cl)c(Oc3ccc([N+](=O)[O-])cc3Cl)c(Cl)c2)c(OC)cc1Cl [Example 202, 3,5-dichloro-N-(4-chloro-2,5-dimethoxy-phenyl)-4-(2-chloro-4-nitrophenoxy)benzene-sulfonamide] | + | + | + | + |  | 
13 | + |  | Cc1cccc(C(C)C)c1NS(=O)(=O)c1cc(Cl)c(Oc2ccc([N+](=O)[O-])cc2Cl)c(Cl)c1 [Example 160, 3,5-dichloro-4-(2-chloro-4-nitrophenoxy)-N-(2-isopropyl-6-methylphenyl)benzene-sulfonamide] | + | + | + | + |  | 
14 | + |  | O=[N+]([O-])c1ccc(Oc2c(Cl)cc(S(=O)(=O)Nc3cccc4cccnc34)cc2Cl)c(Cl)c1 [Example 219, 3,5-dichloro-4-(2-chloro-4-nitrophenoxy)-N-quinolin-8-ylbenzenesulfonamide] | + | + | + | + |  | +
15 | + |  | O=[N+]([O-])c1ccc(Oc2c(Cl)cc(S(=O)(=O)Nc3ccccc3-n3cccc3)cc2Cl)c(Cl)c1 [Example 285, 3,5-dichloro-4-(2-chloro-4-nitrophenoxy)-N-[2-(1H-pyRRol-1-yl)phenyl]benzene-sulfonamide] | + | + |  |  |  | +
16 | + |  | N#Cc1ccc(NS(=O)(=O)c2cc(Cl)c(Oc3ccc([N+](=O)[O-])cc3Cl)c(Cl)c2)cc1 [Example 200, 3,5-dichloro-4-(2-chloro-4-nitrophenoxy)-N-(4-cyanophenyl)benzenesulfonamide] | + | + | + | + |  | 
17 | + |  | O=[N+]([O-])c1ccc(Oc2c(Cl)cc(S(=O)(=O)Nc3ccc(F)cc3I)cc2Cl)c(Cl)c1 [Example 226, 3,5-dichloro-4-(2-chloro-4-nitrophenoxy)-N-(4-fluoro-2-iodophenyl)benzenesulfonamide] | + | + |  |  |  | +
